One data set deals with E. coli (ATCC 31218). The experiment in a line: Antimicrobial activity, agar well zone of inhibition, E. coli. It counts as cell-based, Escherichia coli. Particulars: 10 μL of 10 mg/mL in 50% DMSO per well, overnight 37 °C, --- = no zone of inhibition; for zone of inhibition at 10000 µg/mL: Escherichia coli, ATCC31218. The method, then:
(§1) The antimicrobial activity of the final compounds was performed by reported methods.The bacterial strains, E. coli (Gram negative), S. aureus (Gram positive), and fungi, Candida albicans, were used for the study. Luria broth Agar and Sabouraud Dextrose Agar were prepared into a petri dish using 25 mL of autoclaved media; 100 μL of diluted broth of freshly prepared E. coli, S. aureus, and C. albicans were spread on Luria Broth Agar and Sabouraud Agar plates, respectively. Then, 7 wells of 50 μL capacity were punched on each plate. Samples 5–18 (10 μL of 10 mg/mL standard prepared in 50% DMSO) were placed in each plate’s well in different plate sets. All the plates were incubated for overnight at 37 °C in an incubator shaker. The inhibition zone was calculated in triplicate.

Another data set relates to S. aureus (ATCC 29213). Put plainly: Antimicrobial activity, agar well zone of inhibition, S. aureus. It counts as cell-based, Staphylococcus aureus. Conditions: 10 μL of 10 mg/mL in 50% DMSO per well, overnight 37 °C, --- = no zone of inhibition; for zone of inhibition at 10000 µg/mL: Staphylococcus aureus, ATCC29213. The method, then: as §1
The subject of the next data set is C. albicans (ATCC 10231). The experiment in a line: Antifungal activity, agar well zone of inhibition, C. albicans. It counts as cell-based, Candida albicans. Particulars: 10 μL of 10 mg/mL in 50% DMSO per well, overnight 37 °C, --- = no zone of inhibition; for zone of inhibition at 10000 µg/mL: Candida albicans, ATCC10231. The method, then: as §1
In a further data set the test system is MCF-7. The experiment in a line: Antiproliferative activity, MTT assay, MCF-7. Particulars: for IC50: Homo sapiens, MCF7, read-out: Cytotoxicity IC50 MCF-7. The source says:
(§2) The compounds were screened on breast (MCF-7), liver (HepG2), and colorectal (HCT-116) cancer cells, obtained from American Type culture Collection (ATCC); 0.1% of DMSO was used as a vehicle control.
(Formazan colour is commonly taken as a measure of viable cells.)

For the next data set, the system named is HCT-116. The experiment in a line: Antiproliferative activity, MTT assay, HCT-116. Conditions: Homo sapiens, HCT-116, read-out: Cytotoxicity IC50 HCT-116.
Description: as §2

The next data set relates to HepG2. Put plainly: Antiproliferative activity, MTT assay, HepG2. Conditions: Homo sapiens, HepG2, read-out: Cytotoxicity IC50 HepG2.
Description: as §2

In data set [1] the target is Thymidylate synthase (TS) (Homo sapiens, UniProt P04818). The experiment in a line: Thymidylate synthase (TS) enzymatic assay.
Thymidylate synthase (TS), sequence (P04818 whole entry): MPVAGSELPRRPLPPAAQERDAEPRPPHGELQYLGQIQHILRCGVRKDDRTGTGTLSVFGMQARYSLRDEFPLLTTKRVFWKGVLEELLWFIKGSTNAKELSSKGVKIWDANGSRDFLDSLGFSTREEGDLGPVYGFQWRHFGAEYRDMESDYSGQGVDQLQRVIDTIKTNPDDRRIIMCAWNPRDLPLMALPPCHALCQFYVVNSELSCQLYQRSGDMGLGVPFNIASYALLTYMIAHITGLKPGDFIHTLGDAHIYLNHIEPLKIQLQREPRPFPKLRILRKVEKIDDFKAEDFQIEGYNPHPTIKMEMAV

As a reminder, the zone of inhibition is the size of the clear area around the sample on an inoculated plate. A higher zone of inhibition goes with a stronger effect on the plate. The term melting point denotes the temperature, or range, at which the solid turns liquid. As to `C#CCSc1nnc(COc2cc(C)ccc2C(C)C)o1` [Compound 5, 2-((2-isopropyl-5-methylphenoxy)methyl)-5-(prop-2-ynylthio)-1,3,4-oxadiazole], the melting point was 58 to 60 °C. Also, in the data set on E. coli (ATCC 31218), the “zone of inhibition E. coli” value came to 12 ± 0.32 mm and the zone of inhibition at 10000 µg/mL turned out to be 12 mm. In addition, in the data set with S. aureus (ATCC 29213), the “zone of inhibition S. aureus” value was 9 ± 0.30 mm and the zone of inhibition at 10000 µg/mL was 9 mm. For the same molecule, in the data set on C. albicans (ATCC 10231), the “zone of inhibition C. albicans” value came out at 10 ± 0.32 mm and the zone of inhibition at 10000 µg/mL is 10 mm.
By IC50 is commonly meant the point on the concentration scale where inhibition reaches its midpoint. For the molecule `O=c1[nH]cc(F)c(=O)[nH]1` [Compound 5-FU, 5-fluorouracil, reference compound], the IC50 came out at 18.7 µM in the data set with MCF-7, 30.7 µM in the data set with HCT-116 and 28.7 µM with HepG2.
With `Cc1ccc(C(C)C)c(OCc2nnc(SCc3cn(-c4ccccc4)nn3)o2)c1` [Compound 6, 4-((5-((2-isopropyl-5-methylphenoxy)methyl)-1,3,4-oxadiazol-2-ylthio)methyl)-1-phenyl-1H-1,2,3-triazole], the melting point is 88 to 90 °C. Moreover, the half-maximal inhibitory concentration (IC50) with MCF-7 amounted to 22.5 µM. Further, the IC50 in the data set on HCT-116 is 36.5 µM. Further, the half-maximal inhibitory concentration (IC50) in the data set on HepG2 was found to be 41.6 µM. Moreover, in the data set with E. coli (ATCC 31218), the “zone of inhibition E. coli” value worked out at 14 ± 0.38 mm and the zone of inhibition at 10000 µg/mL came to 14 mm. In addition, in the data set with S. aureus (ATCC 29213), the “zone of inhibition S. aureus” value turned out to be 10 ± 0.40 mm and the zone of inhibition at 10000 µg/mL was determined as 10 mm.
For `Cc1ccc(C(C)C)c(OCc2nnc(SCc3cn(-c4cccc(C(=O)O)c4)nn3)o2)c1` [Compound 8, 3-(4-((5-((2-isopropyl-5-methylphenoxy)methyl)-1,3,4-oxadiazol-2-ylthio)methyl)-1H-1,2,3-triazol-1-yl)benzoic acid], the melting point lay in the range of 166 to 168 °C. Moreover, in the data set on MCF-7, the IC50 stood at 3.9 µM. For the same molecule, the IC50 in the data set with HCT-116 is 5.8 µM. Moreover, the IC50 in the data set on HepG2 turned out to be 5.3 µM. In the data set with S. aureus (ATCC 29213), the “zone of inhibition S. aureus” value came to 10 ± 0.40 mm and the zone of inhibition at 10000 µg/mL amounted to 10 mm. The molecule further showed an IC50 in data set [1] of 3.98 ± 1.1 µM.
`Cc1ccc(C(C)C)c(OCc2nnc(SCc3cn(-c4ccccc4Cl)nn3)o2)c1` [Compound 10, 4-((5-((2-isopropyl-5-methylphenoxy)methyl)-1,3,4-oxadiazol-2-ylthio)methyl)-1-(2-chlorophenyl)-1H-1,2,3-triazole] displayed a melting point of 90 to 92 °C. The “times active relative to 5-florouracil, MCF-7” value in the data set with MCF-7 ((IC50 18.74 μM)) was 15 times. In the data set on MCF-7, the IC50 turned out to be 1.3 µM. In addition, the 50% inhibitory concentration (IC50) in the data set on HCT-116 came out at 3.8 µM. The IC50 in the data set with HepG2 is 2.5 µM. Moreover, inhibition in data set [1] was half-maximal at 2.18 ± 1.7 µM (IC50).
For `Cc1ccc(C(C)C)c(OCc2nnc(SCc3cn(-c4cccc(Cl)c4)nn3)o2)c1` [Compound 11, 4-((5-((2-isopropyl-5-methylphenoxy)methyl)-1,3,4-oxadiazol-2-ylthio)methyl)-1-(3-chlorophenyl)-1H-1,2,3-triazole], the melting point lay in the range of 92 to 94 °C. The IC50 with MCF-7 is 4.9 µM. In addition, the IC50 with HCT-116 turned out to be 16.3 µM. For the same molecule, the IC50 in the data set with HepG2 stood at 18.6 µM. The molecule further displayed an IC50 in data set [1] of 4.24 ± 0.8 µM.
As for `Cc1ccc(C(C)C)c(OCc2nnc(SCc3cn(-c4ccc(Cl)cc4Cl)nn3)o2)c1` [Compound 12, 4-((5-((2-isopropyl-5-methylphenoxy)methyl)-1,3,4-oxadiazol-2-ylthio)methyl)-1-(2,4-dichlorophenyl)-1H-1,2,3-triazole], the melting point lay within 84 to 86 °C. For the same molecule, the IC50 in the data set on MCF-7 is 59.4 µM. Also, the IC50 in the data set with HCT-116 stood at 47.3 µM. Moreover, in the data set with HepG2, the IC50 worked out at 40.6 µM. Besides, in the data set with E. coli (ATCC 31218), the “zone of inhibition E. coli” value is 10 ± 0.38 mm and the zone of inhibition at 10000 µg/mL came out at 10 mm. Also, in the data set with C. albicans (ATCC 10231), the “zone of inhibition C. albicans” value amounted to 12 ± 0.036 mm and the zone of inhibition at 10000 µg/mL stood at 12 mm.
`Cc1ccc(C(C)C)c(OCc2nnc(SCc3cn(-c4ccc(Br)cc4)nn3)o2)c1` [Compound 13, 4-((5-((2-isopropyl-5-methylphenoxy)methyl)-1,3,4-oxadiazol-2-ylthio)methyl)-1-(4-bromophenyl)-1H-1,2,3-triazole]: the melting point lay in the range of 114 to 116 °C. In addition, in the data set with MCF-7, the IC50 came out at 65.3 µM. Moreover, in the data set with HCT-116, the IC50 was 78.7 µM. The half-maximal inhibitory concentration (IC50) in the data set with HepG2 worked out at 69.4 µM. Further, in the data set on E. coli (ATCC 31218), the “zone of inhibition E. coli” value is 11 ± 0.34 mm and the zone of inhibition at 10000 µg/mL amounted to 11 mm.
Molecule `Cc1ccc(C(C)C)c(OCc2nnc(SCc3cn(-c4cccc(Br)c4)nn3)o2)c1` [Compound 14, 4-((5-((2-isopropyl-5-methylphenoxy)methyl)-1,3,4-oxadiazol-2-ylthio)methyl)-1-(3-bromophenyl)-1H-1,2,3-triazole] gave a melting point of 72 to 74 °C. Moreover, the IC50 in the data set with MCF-7 was 41.8 µM. The IC50 with HCT-116 was 32.8 µM. Moreover, in the data set with HepG2, the IC50 is 23.7 µM. Further, in the data set with E. coli (ATCC 31218), the “zone of inhibition E. coli” value stood at 9 ± 0.32 mm and the zone of inhibition at 10000 µg/mL was 9 mm.
The molecule `Cc1ccc(C(C)C)c(OCc2nnc(SCc3cn(-c4ccc(F)cc4)nn3)o2)c1` [Compound 15, 4-((5-((2-isopropyl-5-methylphenoxy)methyl)-1,3,4-oxadiazol-2-ylthio)methyl)-1-(4-florophenyl)-1H-1,2,3-triazole] returned a melting point of 118 to 120 °C. Moreover, the IC50 in the data set with MCF-7 amounted to 23.2 µM. In the data set with HCT-116, the IC50 turned out to be 31.4 µM. The IC50 in the data set with HepG2 was found to be 49.2 µM.
`Cc1ccc(C(C)C)c(OCc2nnc(SCc3cn(-c4ccc(F)cc4F)nn3)o2)c1` [Compound 16, 4-((5-((2-isopropyl-5-methylphenoxy)methyl)-1,3,4-oxadiazol-2-ylthio)methyl)-1-(2,4-diflorophenyl)-1H-1,2,3-triazole] registered a melting point of 130 to 132 °C. In the data set on MCF-7, the IC50 came out at 34.5 µM. Also, the IC50 in the data set with HCT-116 turned out to be 56.2 µM. For the same molecule, the concentration for half-maximal inhibition (IC50) in the data set with HepG2 stood at 58.3 µM. Besides, in the data set with E. coli (ATCC 31218), the “zone of inhibition E. coli” value was found to be 14 ± 0.34 mm and the zone of inhibition at 10000 µg/mL was 14 mm. In the data set with S. aureus (ATCC 29213), the “zone of inhibition S. aureus” value was 15±0.38 mm and the zone of inhibition at 10000 µg/mL is 15 mm.
Take `Cc1ccc(C(C)C)c(OCc2nnc(SCc3cn(C(=O)Nc4ccccc4C)nn3)o2)c1` [Compound 17, 4-((5-((2-isopropyl-5-methylphenoxy)methyl)-1,3,4-oxadiazol-2-ylthio)methyl)-N-o-tolyl-1H-1,2,3-triazole-1-carboxamide]: the melting point is 124 to 126 °C. Also, the IC50 with MCF-7 was 9.39 µM. Moreover, the half-inhibitory concentration (IC50) with HCT-116 was 17.3 µM. Besides, the IC50 in the data set with HepG2 came to 39.1 µM. For the same molecule, in the data set with E. coli (ATCC 31218), the “zone of inhibition E. coli” value was determined as 12 ± 0.32 mm and the zone of inhibition at 10000 µg/mL was 12 mm. Further, in the data set on S. aureus (ATCC 29213), the “zone of inhibition S. aureus” value is 12 ± 0.34 mm and the zone of inhibition at 10000 µg/mL amounted to 12 mm.
Consider `Cc1ccc(C(C)C)c(OCc2nnc(S(=O)(=O)Cc3cn(-c4cccc(Br)c4)nn3)o2)c1` [Compound 18, 4-((5-((2-isopropyl-5-methylphenoxy)methyl)-1,3,4-oxadiazol-2-ylsulfonyl)methyl)-1-(3-bromophenyl)-1H-1,2,3-triazole], for which the melting point is 98 to 100 °C. Further, in the data set with MCF-7, the IC50 was determined as 98.2 µM. The IC50 in the data set on HCT-116 is 118 µM. In the data set with HepG2, the IC50 was determined as 95.7 µM.
In the case of `COc1cccc2c1C(=O)c1c(O)c3c(c(O)c1C2=O)C[C@@](O)(C(=O)CO)C[C@@H]3O[C@H]1C[C@H](N)[C@H](O)[C@H](C)O1` [Dox, doxorubicin, reference compound], the 50% inhibitory concentration (IC50) in the data set with MCF-7 came to 1.2 µM; in the data set on HCT-116 it was 2.5 µM; in the data set on HepG2, 1.8 µM.
In turn, `OC(Cn1cncn1)(Cn1cncn1)c1ccc(F)cc1F` [Fluconazole, reference compound] displayed a zone of inhibition at 10000 µg/mL with C. albicans (ATCC 10231) of 16 ± 0.6 mm.
The molecule `CO[C@@H]1[C@@H](OC(N)=O)[C@@H](O)[C@H](Oc2ccc3c(O)c(NC(=O)c4ccc(O)c(CC=C(C)C)c4)c(=O)oc3c2C)OC1(C)C` [Novobiocin, reference compound] gave a zone of inhibition at 10000 µg/mL in the data set with S. aureus (ATCC 29213) of 10 ± 0.24 mm.
In turn, `Nc1nc2[nH]cc(CCc3ccc(C(=O)N[C@@H](CCC(=O)O)C(=O)O)cc3)c2c(=O)[nH]1` [Pemetrexed, reference compound] yielded an IC50 in data set [1] of 7.26 ± 1.1 µM.

(Values after paper PMC8468421, “Synthesis and Biological Evaluation of 1,2,3-Triazole Tethered Thymol-1,3,4-Oxadiazole Derivatives as Anticancer and Antimicrobial Agents” (Pharmaceuticals, 2021).)
